Data taken from patent US7449290B2, “Method for selecting genetically transformed cells” (Expressive Research B.V., priority 2001, dated 2008).

Assays:
[1] = system: Arabidopsis thaliana Col. O and La-er seedlings; assay: Sensitivity to trehalose of Arabidopsis thaliana seedlings (Col.O and La-er) on agar medium; type: in vivo; conditions: 100 mM trehalose in 0.8% agar, half-strength MS medium, pH 5.7; compared with 100 mM mannitol control
Method: Seeds were sterilized using the gas-phase protocol of Clough and Bent (1998) (Clough S. J., Bent A. F., Plant J. 16(6): 735-743, 199.8) in Eppendorf tubes. The sterilized sees were then resuspended in sterile water and arranged on 0.8% w/v agar medium containing half-strength Murashigue and Skoog medium (MS medium; Murashigue T, Skoog F, Physiol. Plant. 15: 473-497, 1977), vitamins and MES buffer (pH 5.7), supplemented with mannitol or trehalose in a final concentration of 100 mM. […] The upper row of plants are the Arabidopsis thaliana Landsberg erecta (La-er), and the lower row of plants are the Arabidopsis thaliana Colombia (Col.O).

[2] = system: non-transformed Arabidopsis thaliana Col.O seedlings; assay: Selection of transgenic Arabidopsis seedlings on trehalose medium; type: in vivo; conditions: 100 mM trehalose, 1/2 MS agar, after 12 days at 22° C.
Method: Arabidopsis thaliana Col.O plants were transformed with Aarobacterium with the binary plasmid as described in Example 2C, via the “floral dip” protocol (Clough and Bent, supra). The obtained dry seeds were sterilized and sown on 0.8% w/v solid agar medium having therein half-strength MS-salts (½ MS-salts), vitamins and MES buffer pH 5.7, supplemented with trehalose in a final concentration of 100 mM. The dishes were incubated for 3 days at 4° C. (stratification), whereafter a drop of ethanol was applied to the inside of the cover and dishes were transferred to 22° C. […] The transformed resistant seedlings are green, have long roots and primary leaves. […] In moist conditions the cotyledons become pale.

OC[C@H]1O[C@H](O[C@H]2O[C@H](CO)[C@@H](O)[C@H](O)[C@H]2O)[C@H](O)[C@@H](O)[C@@H]1O [trehalose, Trehalose]
development of plants from seeds (root system) [1]: lesser development
phenotype of non-transformed, sensitive seedlings [2]: accumulate anthocyanins, develop no primary leaves
root length of non-transformed, sensitive seedlings [2]: ≤ 3 mm
